Measurements taken from patent publication EP4813463A2, “TYK2 INHIBITORS AND COMPOSITIONS AND METHODS THEREOF” (Lynk Pharmaceuticals Co. Ltd., priority 2023, dated 2024).
Like-named read-outs stand apart in the source and are kept apart here.

Columns and labels:
TYK2-JH2 domain = molecular target: T1, TYK2-JH2 domain (Homo sapiens, UniProt P29597); test: Binding activity test for JH2 domain of TYK2 (Tb-antibody/tracer FRET); details: for IC50: JH2 domain enzyme, 60 min at 25°C, then 4°C overnight, read-out: TYK2 JH2 Binding IC50; for JAK1/TYK2 selectivity: ratio of JAK1 JH2 to TYK2 JH2 binding IC50
T1 construct: JAK1-JH2 domain or TYK2-JH2 domain enzyme in assay buffer
T1 sequence (P29597 589-875 limits assumed): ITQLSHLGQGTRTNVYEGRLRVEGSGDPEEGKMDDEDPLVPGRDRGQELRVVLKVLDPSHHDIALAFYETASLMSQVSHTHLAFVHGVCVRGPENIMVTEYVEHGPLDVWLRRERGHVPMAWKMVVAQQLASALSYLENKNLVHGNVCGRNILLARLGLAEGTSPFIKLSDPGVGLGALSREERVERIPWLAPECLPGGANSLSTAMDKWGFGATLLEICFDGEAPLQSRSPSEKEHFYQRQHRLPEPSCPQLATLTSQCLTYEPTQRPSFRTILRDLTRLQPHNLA
Procedure, shortened: (§1)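 Competitive TR-FRET binding: compounds dispensed as an 11-point 3-fold dilution series, then Tb-labelled antibody and tracer added to the JH2 protein system. Incubated at 25°C, then overnight at 4°C; FRET signal read on Envision and IC50 (nM) derived.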

JAK1-JH2 domain = molecular target: T2, JAK1-JH2 domain (Homo sapiens, UniProt P23458); test: Binding activity test for JH2 domain of JAK1 (Tb-antibody/tracer FRET); details: JH2 domain enzyme; 60 min at 25°C, then 4°C overnight; read-out: JAK1 JH2 Binding IC50
T2 construct: JAK1-JH2 domain or TYK2-JH2 domain enzyme in assay buffer
T2 sequence (P23458 583-855 limits assumed): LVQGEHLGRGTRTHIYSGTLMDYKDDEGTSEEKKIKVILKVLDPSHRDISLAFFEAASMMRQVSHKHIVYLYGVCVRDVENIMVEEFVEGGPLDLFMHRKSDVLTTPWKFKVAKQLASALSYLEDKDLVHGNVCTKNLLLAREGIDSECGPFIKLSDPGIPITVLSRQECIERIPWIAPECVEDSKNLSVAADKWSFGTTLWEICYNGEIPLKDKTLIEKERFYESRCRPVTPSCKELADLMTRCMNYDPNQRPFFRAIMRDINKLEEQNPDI
Procedure, shortened: as §1

[1] = test system: Ba/F3-FL-TYK2-P760L cells; test: Anti-proliferative assay in engineered Ba/F3 cells (Cell-Titer Glo, 72 h); type: cell-based; details: 72 h compound treatment, concentration that causes 50% growth inhibition, read-out: Baf3-FL-T2P760L
Procedure, shortened: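 Ba/F3 cells carrying Tel-dimerization/JAK kinase fusion, IL-3-independent, in RPMI-1640 + 10% FBS; 9-point 3-fold dilutions from 20 µM (0.1% DMSO) added after 24 h, 72 h at 37 °C. Viability by Cell-Titer Glo ATP luminescence; % inhibition versus DMSO cells, blank-corrected, giving IC50.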

pSTAT1 = test: Phosphorylation inhibition of STAT in human whole blood (IFN-alpha stimulated, flow cytometry); type: cell-based; details: T-cell, 20 min, IFN-alpha stimulation 20 mins, CD3 T cells, read-out: pSTAT1 inhibition in hWB (IC50)
Protocol: The inhibitory potential of test articles in human whole blood assay was evaluated by the method of flow cytometry.
IFN-alpha will activate JAK1 and TYK2 kinase in T cells by binding to IFN receptors, and then lead to phosphorylation of STAT1 and STAT2. The phosphorylated STAT1 enter nuclear and promote transcription and expression of IFN-gamma. To evaluate the efficacy of TYK2i in T cells, freshly collected human whole blood will be stimulated with certain unit of human IFN-alpha (Universal Type I IFN(1MU), R&D, 11200-2) for 20 mins in incubator. After stimulation, fix cells with Phosflow™ Fix Buffer I (BD, 557870), and then collect fixed cells by centrifugation (500 g, 8min). Wash cells once with pre-cooled PBS, and then permeabilize cells with cold Perm Buffer III buffer (BD, 558050) for 45 mins on ice. Collect cells by centrifugation (600 g, 8min) and washed twice with cold PBS. Stain cells with anti-human CD3(FITC Mouse Anti-Human CD3, BD, 555332) and anti-pSTAT1_Y701(Alexa Fluor 647 Mouse Anti-Stat1 (pY701), BD, 612597) antibodies. Detect pSTAT1 by flow cytometry (CytoFlex S) and analyze data with FlowJo and GraphPad Prism 8 software. IC50 values of test articles were determined using 4- parameter logistic equation.

[2] = Microsomal metabolic stability assay; type: in vitro ADME; details: human, liver microsomes, pH 7.4, 0.5 mg/mL microsomal protein, 1 µM test article, 2 mM NADPH; for microsomal CLint at 1 µM: read-out: Human LM Clint; for half-life at 1 µM: read-out: Human LM T1/2
Protocol: Microsomes were pre-incubated with test compound or control compounds for 5 min at 37°C in 100 mM potassium phosphate buffer, pH 7.4, 1.0 mM EDTA. The reaction was initiated by addition of 15 µL of the NADPH regenerating system to 30 µL of each incubation mixture per time point. The final incubation condition was composed of 0.5 mg/mL microsomal protein, 1 µM test article/positive control, 2 mM NADPH. The 0-minute samples were prepared by addition of a 30 µL aliquot of each incubation mixture to 135 µL quench reagent to precipitate proteins. And then a 15 µL aliquot of the NADPH regenerating system was added. At 5, 15, 30 and 45 minutes, the reaction will be stopped by the addition of cold acetonitrile solution containing internal standard. The samples taken at all time points were centrifuged at 5000×g for 15 minutes. 50 µL of supernatant are taken into 96-well assay plates pre-added with 50 µL ultrapure water, and then analyzed by LC/MS/MS.
Concentrations of test articles, control compounds in the samples were determined by using LC/MS/MS method. Plotting of the chromatograms and peak area integrations are carried out by Analyst (AB Sciex).
In the determination of the in vitro elimination constant (ke) of the control compounds, the analyte/internal standard peak area ratios will be converted to percentage remaining (%Remaining) with the following equation: %Remaining = (Peak area ratio of analyte to IS at each time point)/(Peak area ratio of analyte to IS at t = 0) × 100% [formula]
The CLint of microsomes was calculated using the formula: CLint (mic)=0.693/T1/2 /mg microsome protein per mL. The slope was measured by the natural logarithm of the percentage of the residual compound and time, T1/2 was calculated according to the following formula. T = (0.693)/(−slope) [formula]

Compound	IC50 (TYK2-JH2 domain) [nM]	JAK1/TYK2 selectivity (TYK2-JH2 domain)	IC50 (JAK1-JH2 domain) [nM]	IC50 ([1]; Mus musculus, BaF3, 72 h) [nM]	IC50 (pSTAT1) [nM]	microsomal CLint at 1 µM [2] [µL/min/mg]	half-life at 1 µM [2] [h]	IC50 [1] [nM]
[2H]C([2H])([2H])NC(=O)c1cnc(NC(=O)[C@@H]2C[C@@H]2F)cc1Nc1nn(C)c2ccc([C@H](OC([2H])([2H])[2H])C(F)(F)F)c(OC)c12 [Example 192, 6-((1S,2S)-2-Fluorocyclopropane-1-carboxamido)-4-((4-methoxy-1-methyl-5-((S)-2,2,2-trifluoro-1-(methoxy-d3)ethyl)-1H-indazol-3-yl)amino)-N-(methyl-d3)nicotinamide]	0.075	35.08	2.63	0.088	24.6			
COC(=O)c1cnc(NC(=O)C2CC2)cc1Nc1nc2ccc(N3CC(OC)C3)cn2n1 [Example 107, Methyl 6-(cyclopropanecarbonylamino)-4-[[6-(3-methoxyazetidin-1-yl)-[1,2,4]triazolo[1,5-a]pyridin-2-yl]amino]pyridine-3-carboxylate]	0.25			27.8	401			
[2H]C([2H])([2H])NC(=O)c1cnc(NC(=O)C2CC2)cc1Nc1cnn2ccc(CC#N)c(OC)c12 [Example 18, 4-((5-(Cyanomethyl)-4-methoxypyrazolo[1,5-a]pyridin-3-yl)amino)-6-(cyclopropanecarboxamido)-N-(methyl-d3)nicotinamide]	0.13	12.5	1.63	90.3	84.3			
[2H]C([2H])([2H])NC(=O)c1nnc(NC(=O)C2CC2)cc1Nc1nn(C)c2ccc([C@H](OC)C(F)(F)F)c(OC)c12 [Example 51B, (S)-6-(cyclopropanecarboxamido)-4-((4-methoxy-1-methyl-5-(2,2,2-trifluoro-1-methoxyethyl)-1H-indazol-3-yl)amino)-N-(methyl-d3)pyridazine-3-carboxamide]	0.171	7.43	1.27	0.399	76.5	8.06	2.87	
[2H]C([2H])([2H])CC(=O)c1cnc(NC(=O)C2CC2)cc1Nc1cnn2ccc([C@H](O)C(F)(F)F)c(OC)c12 [Example 141, (S)-N-(4-((4-methoxy-5-(2,2,2-trifluoro-1-hydroxyethyl)pyrazolo[1,5-a]pyridin-3-yl)amino)-5-(propanoyl-3,3,3-d3)pyridin-2-yl)cyclopropanecarboxamide]	0.075			11.3	177			
[2H]C([2H])(C)C(=O)c1cnc(NC(=O)C2CC2)cc1Nc1nn(C)c2ccc(C(O)C(F)(F)F)c(OC)c12 (stereo not drawn) [Example 156, N-(4-((4-methoxy-1-methyl-5-(2,2,2-trifluoro-1-hydroxyethyl)-1H-indazol-3-yl)amino)-5-(propanoyl-2,2-d2)pyridin-2-yl)cyclopropanecarboxamide]	0.163	86.87	14.2	1.76		26.2	0.881	
[2H]C([2H])([2H])NC(=O)c1cnc(NC(=O)C2CC2)cc1Nc1nn(CC)c2ccc(C(O)C(F)(F)F)c(OC)c12 (single isomer, unassigned) [Example 71A, (S*)-6-(cyclopropanecarboxamido)-4-((1-ethyl-4-methoxy-5-(2,2,2-trifluoro-1-hydroxyethyl)-1H-indazol-3-yl)amino)-N-(methyl-d3)nicotinamide]	0.14	51.84	7.26		54.9			0.412
[2H]C([2H])([2H])NC(=O)c1cnc(NC(=O)C2CC2)nc1Nc1cnn2ccc(Cl)c(OC)c12 [Example 4, 4-((5-Chloro-4-methoxypyrazolo[1,5-a]pyridin-3-yl)amino)-2-(cyclopropanecarboxamido)-N-(methyl-d3)pyrimidine-5-carboxamide]	0.164	93.5	15.3	38.9	312			
[2H]C([2H])([2H])NC(=O)c1cnc(NC(=O)[C@@H]2C[C@@H]2F)cc1Nc1cnn2ccc(COC)c(OC)c12 [Example 17, 6-((1S,2S)-2-fluorocyclopropane-1-carboxamido)-4-((4-methoxy-5-(methoxymethyl)pyrazolo[1,5-a]pyridin-3-yl)amino)-N-(methyl-d3)nicotinamide]	0.102	125.0	12.7	84.3		12.3	1.87	
CCn1nc(Nc2cc(NC(=O)C3CC3)ncc2C(=O)OC)c2c(OC)c(C(OC)C(F)(F)F)ccc21 (single isomer, unassigned) [Example 66B, Methyl (S*)-6-(cyclopropanecarboxamido)-4-((1-ethyl-4-methoxy-5-(2,2,2-trifluoro-1-methoxyethyl)-1H-indazol-3-yl)amino)nicotinate]	0.13	719.87	90.7	12.5		14.2	1.62	
[2H]C([2H])([2H])NC(=O)c1cnc(NC(=O)C2CC2)cc1Nc1cnn2ccc(CO)c(OC)c12 [Example 22, 6-(Cyclopropanecarboxamido)-4-((5-(hydroxymethyl)-4-methoxypyrazolo[1,5-a]pyridin-3-yl)amino)-N-(methyl-d3)nicotinamide]	0.185	40.6	7.5	127	80.8	4.5	5.13	
[2H]C([2H])([2H])NC(=O)c1nnc(NC(=O)C2CC2)cc1Nc1ncn2cccc2c1OC [Example 198, 6-(Cyclopropanecarboxamido)-4-((4-methoxypyrrolo[1,2-c]pyrimidin-3-yl)amino)-N-(methyl-d3)pyridazine-3-carboxamide, reference compound]	1.48	7.0	10.4	260	1470			
